In ChEMBL document CHEMBL2016512, “Calcitonin gene-related peptide (CGRP) receptor antagonists: novel aspartates and succinates” (Bioorg Med Chem Lett, 2012):

How the values were obtained:
[1] = target: T1, Calcitonin gene-related peptide type 1 receptor (Homo sapiens, UniProt O60894+Q16602); experiment: Displacement of [125]CGRP from human CGRP receptor expressed in human SK-N-MC cell membrane after 2 hrs by scintillation counting; type: cell membranes
[2] = target: T1, Calcitonin gene-related peptide type 1 receptor; experiment: Antagonist activity at human CGRP receptor expressed in human SK-N-MC cells assessed as inhibition of CGRP-stimulated cAMP production; type: functional, cell-based
[3] = Solubility of the compound; type: physicochemical
Caco-2 = experiment: Permeability across human Caco2 cells; type: ADME, cell-based
[4] = Aqueous solubility of the compound; type: physicochemical; settings: buffer

T1 sequence (Q16602 whole entry, one chain of several): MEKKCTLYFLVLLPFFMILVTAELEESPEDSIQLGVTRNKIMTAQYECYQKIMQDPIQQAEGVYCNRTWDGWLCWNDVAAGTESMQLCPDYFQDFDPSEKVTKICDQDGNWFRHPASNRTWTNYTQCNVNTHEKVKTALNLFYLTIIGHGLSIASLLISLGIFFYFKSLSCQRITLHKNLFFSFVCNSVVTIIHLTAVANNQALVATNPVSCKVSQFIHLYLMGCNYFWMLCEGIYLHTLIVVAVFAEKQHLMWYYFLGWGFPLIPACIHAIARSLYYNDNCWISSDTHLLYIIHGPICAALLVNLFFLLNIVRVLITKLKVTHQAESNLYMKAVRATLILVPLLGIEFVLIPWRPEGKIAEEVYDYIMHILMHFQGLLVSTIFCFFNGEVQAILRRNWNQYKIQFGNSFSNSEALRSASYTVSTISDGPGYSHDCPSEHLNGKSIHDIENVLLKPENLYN

Row | Compound | IC50 [1] | IC50 [2] | solubility [3] | permeability (Caco-2) | solubility [4]
1 | O=C(C[C@H](NCc1ccccn1)C(=O)N1CCC(N2CCCCC2)CC1)N1CCC(N2Cc3ccccc3NC2=O)CC1 | 700 nM |  |  |  | 
2 | O=C(C[C@H](NCc1ccc2[nH]ccc2c1)C(=O)N1CCC(N2CCCCC2)CC1)N1CCC(N2Cc3ccccc3NC2=O)CC1 | 380 nM |  |  |  | 
3 | O=C(C[C@H](NCc1ccc2[nH]ncc2c1)C(=O)N1CCC(N2CCCCC2)CC1)N1CCC(N2Cc3ccccc3NC2=O)CC1 | 130 nM | 300 nM |  |  | 
4 | O=C(C[C@H](NC1CCC(O)CC1)C(=O)N1CCC(N2CCCCC2)CC1)N1CCC(N2Cc3ccccc3NC2=O)CC1 (stereo not given in full) | 4500 nM |  |  |  | 
5 | O=C(N[C@@H](CC(=O)N1CCC(N2Cc3ccccc3NC2=O)CC1)C(=O)N1CCC(N2CCCCC2)CC1)c1ccc(F)c(F)c1 | 430 nM |  |  |  | 
6 | CC(C)(C)OC(=O)N[C@@H](CC(=O)N1CCC(N2Cc3ccccc3NC2=O)CC1)C(=O)N1CCC(N2CCCCC2)CC1 | 590 nM |  |  |  | 
7 | O=C(N[C@@H](CC(=O)N1CCC(N2Cc3ccccc3NC2=O)CC1)C(=O)N1CCC(N2CCCCC2)CC1)Oc1ccccc1 | 280 nM |  |  |  | 
8 | O=C(Nc1cccc(Cl)c1Cl)N[C@@H](CC(=O)N1CCC(N2Cc3ccccc3NC2=O)CC1)C(=O)N1CCC(N2CCCCC2)CC1 | 97 nM |  | Insoluble | impermeable | 
9 | O=C(Nc1ccc(Cl)cc1Cl)N[C@@H](CC(=O)N1CCC(N2Cc3ccccc3NC2=O)CC1)C(=O)N1CCC(N2CCCCC2)CC1 | 36 nM |  | Insoluble | impermeable | 
10 | O=C(Nc1ccccc1F)N[C@@H](CC(=O)N1CCC(N2Cc3ccccc3NC2=O)CC1)C(=O)N1CCC(N2CCCCC2)CC1 | 45 nM |  | Insoluble | impermeable | 
11 | O=C(Nc1ccccc1Cl)N[C@@H](CC(=O)N1CCC(N2Cc3ccccc3NC2=O)CC1)C(=O)N1CCC(N2CCCCC2)CC1 |  | 100 nM | Insoluble | impermeable | 
12 | O=C(C[C@H](Nc1cc(Cl)ncn1)C(=O)N1CCC(N2CCCCC2)CC1)N1CCC(N2Cc3ccccc3NC2=O)CC1 | 98 nM | 46 nM |  |  | 
13 | O=C(C[C@H](Nc1ccncn1)C(=O)N1CCC(N2CCCCC2)CC1)N1CCC(N2Cc3ccccc3NC2=O)CC1 | 1400 nM |  |  |  | 
14 | O=C(C[C@H](Nc1ccc(Cl)cc1[N+](=O)[O-])C(=O)N1CCC(N2CCCCC2)CC1)N1CCC(N2Cc3ccccc3NC2=O)CC1 | 32 nM | 32 nM |  |  | 
15 | O=C(C[C@H](Nc1nc(Cl)nc2[nH]ncc12)C(=O)N1CCC(N2CCCCC2)CC1)N1CCC(N2Cc3ccccc3NC2=O)CC1 | 250 nM | 99 nM |  |  | 
16 | Cc1nc(N[C@@H](CC(=O)N2CCC(N3Cc4ccccc4NC3=O)CC2)C(=O)N2CCC(N3CCCCC3)CC2)nc(N)c1[N+](=O)[O-] | 80 nM |  |  |  | 
17 | Cc1nc(N[C@@H](CC(=O)N2CCC(N3Cc4ccccc4NC3=O)CC2)C(=O)N2CCC(N3CCCCC3)CC2)nc2nn[nH]c12 | 73 nM | 120 nM |  |  | 
18 | O=C(C[C@H](Nc1ccc2[nH]ccc2c1)C(=O)N1CCC(N2CCCCC2)CC1)N1CCC(N2Cc3ccccc3NC2=O)CC1 | 180 nM | 59 nM |  |  | 
19 | O=C(C[C@H](Nc1ccc2[nH]ncc2c1)C(=O)N1CCC(N2CCCCC2)CC1)N1CCC(N2Cc3ccccc3NC2=O)CC1 | 170 nM | 230 nM |  |  | 
20 | O=C(C[C@H](Nc1cccc2ncccc12)C(=O)N1CCC(N2CCCCC2)CC1)N1CCC(N2Cc3ccccc3NC2=O)CC1 | 890 nM |  |  |  | 

Row | Compound | IC50 [1] | IC50 [2] | solubility [3] | permeability (Caco-2) | solubility [4]
21 | O=C(C[C@H](Nc1ccc(Br)c2ccccc12)C(=O)N1CCC(N2CCCCC2)CC1)N1CCC(N2Cc3ccccc3NC2=O)CC1 | 120 nM |  |  |  | 
22 | O=C(C[C@H](Nc1cccc2ccccc12)C(=O)N1CCC(N2CCCCC2)CC1)N1CCC(N2Cc3ccccc3NC2=O)CC1 | 220 nM |  |  |  | 
23 | Cc1cc(C[C@@H](CC(=O)N2CCC(N3Cc4ccccc4NC3=O)CC2)C(=O)N2CCC(N3CCCCC3)CC2)cc2cn[nH]c12 | 0.06 nM | 0.019 nM |  | impermeable | Insoluble
24 | Cc1cc(C[C@H](CC(=O)N2CCC(N3Cc4ccccc4NC3=O)CC2)C(=O)N2CCC(N3CCCCC3)CC2)cc2cn[nH]c12 | 11 nM | 11 nM |  | impermeable | Insoluble
25 | Cc1cc(C[C@@H](CC(=O)N2CCC(N3Cc4cccc(F)c4NC3=O)CC2)C(=O)N2CCC(N3CCCCC3)CC2)cc2cn[nH]c12 | 0.2 nM | 0.082 nM |  | impermeable | Insoluble
26 | Cc1cc(C[C@H](CC(=O)N2CCC(N3Cc4cccc(F)c4NC3=O)CC2)C(=O)N2CCC(N3CCCCC3)CC2)cc2cn[nH]c12 | 6.7 nM | 4.6 nM |  | impermeable | Insoluble
27 | Cc1cc(CC(CC(=O)N2CCC3(CC2)OC(=O)Nc2ccccc23)C(=O)N2CCC(N3CCCCC3)CC2)cc2cn[nH]c12 (racemic) | 0.33 nM | 0.7 nM |  |  | 
28 | Cc1cc(CC(CC(=O)N2CCC(N3Cc4ccccc4NC3=O)CC2)C(=O)N2CCC(N3CCCCC3)CC2)cc2cn[nH]c12 (racemic) | 0.074 nM | 0.068 nM |  |  | 
29 | Cc1cc(CC(CC(=O)N2CCC(N3Cc4cccc(F)c4NC3=O)CC2)C(=O)N2CCC(N3CCCCC3)CC2)cc2cn[nH]c12 (racemic) | 0.18 nM | 0.089 nM |  |  | 
30 | Cc1cc(CC(CC(=O)N2CCC3(CC2)NC(=O)Nc2ccccc23)C(=O)N2CCC(N3CCCCC3)CC2)cc2cn[nH]c12 (racemic) | 0.34 nM | 0.35 nM |  |  | 
31 | Cc1cc(CC(CC(=O)N2CCC(n3cc(-c4ccccc4)[nH]c3=O)CC2)C(=O)N2CCC(N3CCCCC3)CC2)cc2cn[nH]c12 (racemic) | 0.15 nM | 0.049 nM |  |  | 
32 | Cc1cc(CC(CC(=O)N2CCC(c3cc4ccccc4[nH]c3=O)CC2)C(=O)N2CCC(N3CCCCC3)CC2)cc2cn[nH]c12 (racemic) | 0.3 nM | 0.12 nM |  |  | 
33 | Cc1cc(CC(CC(=O)N2CCC(N3Cc4ccccc4NC3=O)CC2)C(=O)N2CCC3(CC2)OCCO3)cc2cn[nH]c12 (racemic) | 3.2 nM | 5.8 nM |  |  | 
34 | Cc1cc(CC(CC(=O)N2CCC3(CC2)OC(=O)Nc2ccccc23)C(=O)N2CCC3(CC2)OCCO3)cc2cn[nH]c12 (racemic) | 5.9 nM | 8.8 nM |  |  | 
35 | Cc1cc(CC(CC(=O)N2CCC(N3Cc4ccccc4NC3=O)CC2)C(=O)N2CCC(C)CC2)cc2cn[nH]c12 (racemic) | 2.7 nM | 2 nM |  |  | 
36 | Cc1cc(CC(CC(=O)N2CCC3(CC2)OC(=O)Nc2ccccc23)C(=O)N2CCCCC2)cc2cn[nH]c12 (racemic) | 19 nM | 34 nM |  |  | 
37 | Cc1cc(CC(CC(=O)N2CCC(N3Cc4ccccc4NC3=O)CC2)C(=O)N2CCCCC2)cc2cn[nH]c12 (racemic) | 3.7 nM | 6.9 nM |  |  | 
38 | O=C1Nc2ccccc2C2(CCN(C(=O)CC(Cc3ccc4[nH]ncc4c3)C(=O)N3CCC(N4CCCCC4)CC3)CC2)O1 (racemic) | 15 nM | 53 nM |  |  | 
39 | O=C(CC(Cc1ccc2[nH]ncc2c1)C(=O)N1CCC2(CC1)OCCO2)N1CCC(N2Cc3ccccc3NC2=O)CC1 (racemic) | 87 nM | 320 nM |  |  | 
40 | O=C1Nc2ccccc2C2(CCN(C(=O)CC(Cc3ccc4[nH]ncc4c3)C(=O)N3CCC4(CC3)OCCO4)CC2)O1 (racemic) | 460 nM |  |  |  | 
